We go through one molecule from US20260124213A1, “STAPHYLOCOCCUS AUREUS PBP4 INHIBITORS AND METHOD OF USE” (UNIVERSITY OF ROCHESTER, priority 2022, published 2026).

Holding throughout (assay type): cell-based, Staphylococcus aureus
Experiment [1] concerns MRSA strain BAA-1770. Kind of experiment: Broth microdilution antibiotic potentiation. The settings on record: Ex. 3 compound at 60 μM. The protocol:
Broth Microdilution Method for Antibiotic Potentiation with MRSA Strains. Bacteria were cultured for 6 hours in CAMHB and sub-cultured to 5×10^5 CFU/mL in CAMHB. Subcultures were aliquoted (4 mL) into culture tubes and then inoculated with compound from 10 mM or 100 mM stock in DMSO to the desired concentration. […] Bacteria treated with antibiotic alone served as the control. Samples from the secondary culture tubes were then aliquoted (200 μL) into the first row of wells of a 96-well microtiter plate. Rows 2-11 were filled (100 μL) with the remaining 4 mL of bacterial subculture containing the adjuvant. Row 12 was filled (100 μL) with uninoculated media. From row 1, 100 μL was transferred to row two and mixed 5-8 times before being transferred to row 3. This procedure was used to serial dilute the rest of the rows through 10. The microtiter plate was then covered in Press 'n Seal and incubated at 37° C.

The test system of experiment [2] is S. aureus strain CRB. Kind of experiment: microbe, parasite or virus in culture. The settings on record: CRB. The protocol: Fractional Inhibitory Concentration Index (FICI). Fractional inhibitory testing was performed in checkerboard format to determine whether putative PBP4 inhibitors potentiated the antimicrobial effects of β-lactams toward S. aureus strains USA300 and CRB, as previously described (Chojacnki, et al. Journal of Antimicrobial Chemotherapy, 2003, 52, 1). To do so, in triplicate 10^5 CFU of each strain (10 μL) was added to individual wells of a microtiter plate containing 90 μL MH media. […] Plates were incubated at 37° C. for 16-20 hour and the lowest concentration of each test agent that inhibited bacterial growth alone or in combination was determined by the naked eye. The fractional inhibitory concentration (FIC) index was calculated using the formula: FIC of A (MIC of drug A in combination/MIC of drug A alone)+FIC B ([…]/MIC of drug B alone). A synergistic interaction was defined as a FICI value of less than 0.5, an additive interaction was defined as a FICI value between 0.5 and 1.0, an indifferent interaction was defined as a FICI value between 1.0 and 4.0, and an antagonistic interaction was defined as a FICI value of more than 4.0.

For experiment [3], the system named is pbp4 expression in USA300. The experiment is described as follows: Quantitative reverse transcriptase PCR of pbp4 transcript. Particulars: 25 μM, 3 hour. The protocol: (§1) Quantitative Reverse Transcriptase PCR. PBP4 transcript titers of bacterial cells exposed to putative PBP4 inhibitors were measured using real time quantitative PCR (RT-qPCR), as previously described (Chojnacki, et al. Antibiotics, 2021, 10, 369). Briefly, overnight cultures of S. aureus strains USA300, USA300Δpbp4, CRB, and CRBΔpbp4 were grown overnight in MH media, diluted (1:100 dilution) in fresh media and sub-cultured to a final OD600 nm of 0.2 at 37° C. with aeration. […] Cells were washed with PBS buffer, and collected via centrifugation at 1,250×g for 10 minutes. Total bacterial RNA was isolated from cell pellets using Qiagen® RNeasy kits, following the manufacturer's guidelines for prokaryotic RNA isolation (Qiagen®, Germantown, MD). A total of 2 μg RNA was DNase treated and repurified using RNeasy kits.
(§2) To measure pbp4 expression, a total of 400 ng of total bacterial RNA was used as a template for qRT-PCR using pbp4 primers (forward, 5′-[…]-3′; reverse, 5′-[…]-3′) and a total of 4 ng of total bacterial RNA was used as a template for primers specific for 16S rRNA (forward, 5′-[…]-3′; reverse, 5′-[…]-3′). Bacterial RNA was amplified and measured using PerfeCTa® SYBR Green FastMix® and qScript® cDNA SuperMix® kits following the manufacturer's recommendations (QuantaBio®, Beverly, MA). […]

In experiment [4] the test system is pbp4 expression in CRB. Described as above. Particulars: 25 μM, 3 hour. On the procedure:
as §1, §2

Consider `O=C(Nc1ccc2[nH]c(-c3cccs3)nc2c1)c1ccco1` [Compound 1 (7729837)], for which the “Oxacillin MIC fold reduction” value in experiment [1] is 32. Besides, the “Cmpd (putative PBP4 inhibitor) MIC, Alone” value in experiment [2] was determined as 200 µM. For the same molecule, the “Fold-decrease in ceftobiprole resistance in combination” value in experiment [2] amounted to 2. In addition, in experiment [2] (with ceftobiprole), the “Cmpd concentration, Combination” value stood at 50 µM. Further, the “BPR (ceftobiprole) MIC, Combination” value in experiment [2] (with putative PBP4 inhibitor) is 64 µg/mL. Besides, the “pbp4 expression (qRT-PCR)” value in experiment [3] is listed as “slightly reduced”; in experiment [4], “significantly reduced”.
